Assay results: ChEMBL document CHEMBL1156106 (J Med Chem, 2009)

Legend:
Mus musculus [1] = experiment: Antidepressant activity in ip dosed mouse assessed as time to reach peak stimulation of locomotor activity; type: functional
Mus musculus [2] = experiment: Antidepressant activity in ip dosed mouse assessed as stimulation of locomotor activity; type: functional
Mus musculus [3] = experiment: Antidepressant activity in ip dosed mouse assessed as stimulation of locomotor activity relative to cocaine; type: functional
Rattus norvegicus [4] = experiment: Effect on behavioural activity in rat assessed as cocaine-induced lever response at 50 mg/kg, ip pretreated with cocaine for 50 mins by drug-discrimination studies; type: functional; conditions: route intraperitoneal
Rattus norvegicus [5] = experiment: Effect on behavioural activity in rat assessed as cocaine-induced lever response at 100 mg/kg, ip pretreated with cocaine for 50 mins by drug-discrimination studies; type: functional; conditions: route intraperitoneal
Mus musculus [6] = experiment: Antidepressant activity in ip dosed mouse assessed as duration of locomotor activity; type: functional
Rattus norvegicus [7] = experiment: Effect on behavioural activity in rat assessed as cocaine-induced lever response at 10 mg/kg, ip pretreated with cocaine for 80 mins by drug-discrimination studies; type: functional; conditions: route intraperitoneal
Rattus norvegicus [8] = experiment: Effect on behavioural activity in rat assessed as cocaine-induced lever response at 100 mg/kg, ip pretreated with cocaine for 80 mins by drug-discrimination studies; type: functional; conditions: route intraperitoneal
[9] = molecular target: Sodium-dependent noradrenaline transporter (Homo sapiens, UniProt P23975); experiment: Displacement of [125I]RTI55 from cloned human NET expressed in HEK293 cells; type: cell-based
Rattus norvegicus [10] = experiment: Effect on behavioural activity in rat assessed as cocaine-induced lever response at 50 mg/kg, ip pretreated with cocaine for 80 mins by drug-discrimination studies; type: functional; conditions: route intraperitoneal
Rattus norvegicus [11] = experiment: Effect on behavioural activity in rat assessed as cocaine-induced lever response at 25 mg/kg, ip pretreated with cocaine for 80 mins by drug-discrimination studies; type: functional; conditions: route intraperitoneal
Rattus norvegicus [12] = experiment: Effect on behavioural activity in rat assessed as cocaine-induced lever response at 50 mg/kg, ip pretreated with cocaine for 240 mins by drug-discrimination studies; type: functional; conditions: route intraperitoneal
[13] = molecular target: T1, Sodium-dependent serotonin transporter (Homo sapiens, UniProt P31645); experiment: Inhibition of [3H]serotonin reuptake at human SERT expressed in HEK293 cells; type: cell-based
Rattus norvegicus [14] = experiment: Effect on behavioural activity in rat assessed as cocaine-induced lever response at 25 mg/kg, ip pretreated with cocaine for 240 mins by drug-discrimination studies; type: functional; conditions: route intraperitoneal
Rattus norvegicus [15] = experiment: Effect on behavioural activity in rat assessed as cocaine-induced lever response at 100 mg/kg, po pretreated with cocaine for 90 mins by drug-discrimination studies; type: functional
Rattus norvegicus [16] = experiment: Effect on behavioural activity in rat assessed as cocaine-induced lever response at 5 mg/kg, po pretreated with cocaine for 180 mins by drug-discrimination studies; type: functional
Rattus norvegicus [17] = experiment: Effect on behavioural activity in rat assessed as cocaine-induced lever response at 100 mg/kg, po pretreated with cocaine for 45 mins by drug-discrimination studies; type: functional
Rattus norvegicus [18] = experiment: Effect on behavioural activity in rat assessed as cocaine-induced lever response at 2.5 mg/kg, po pretreated with cocaine for 90 mins by drug-discrimination studies; type: functional
Rattus norvegicus [19] = experiment: Effect on behavioural activity in rat assessed as cocaine-induced lever response at 2.5 mg/kg, ip pretreated with cocaine for 30 mins by drug-discrimination studies; type: functional; conditions: route intraperitoneal
Rattus norvegicus [20] = experiment: Effect on behavioural activity in rat assessed as cocaine-induced lever response at 10 mg/kg, ip pretreated with cocaine for 30 mins by drug-discrimination studies; type: functional; conditions: route intraperitoneal
Rattus norvegicus [21] = experiment: Effect on behavioural activity in rat assessed as cocaine-induced lever response at 5 mg/kg, po pretreated with cocaine for 360 mins by drug-discrimination studies; type: functional
Rattus norvegicus [22] = experiment: Effect on behavioural activity in rat assessed as cocaine-induced lever response at 10 mg/kg, po pretreated with cocaine for 90 mins by drug-discrimination studies; type: functional
Rattus norvegicus [23] = experiment: Effect on behavioural activity in rat assessed as cocaine-induced lever response at 5 mg/kg, po pretreated with cocaine for 90 mins by drug-discrimination studies; type: functional
Rattus norvegicus [24] = experiment: Effect on behavioural activity in ip dosed rat assessed as cocaine-induced lever response pretreated with cocaine by drug-discrimination studies; type: functional
Rattus norvegicus [25] = experiment: Effect on behavioural activity in rat assessed as cocaine-induced lever response at 25 mg/kg, po pretreated with cocaine for 90 mins by drug-discrimination studies; type: functional
Rattus norvegicus [26] = experiment: Effect on behavioural activity in rat assessed as cocaine-induced lever response at 2.5 mg/kg, po pretreated with cocaine for 180 mins by drug-discrimination studies; type: functional
Rattus norvegicus [27] = experiment: Effect on behavioural activity in rat assessed as cocaine-induced lever response at 50 mg/kg, po pretreated with cocaine for 90 mins by drug-discrimination studies; type: functional
Rattus norvegicus [28] = experiment: Effect on behavioural activity in rat assessed as cocaine-induced lever response at 5 mg/kg, po pretreated with cocaine for 45 mins by drug-discrimination studies; type: functional
Rattus norvegicus [29] = experiment: Effect on behavioural activity in rat assessed as cocaine-induced lever response at 10 mg/kg, po pretreated with cocaine for 180 mins by drug-discrimination studies; type: functional
Rattus norvegicus [30] = experiment: Effect on behavioural activity in rat assessed as cocaine-induced lever response at 10 mg/kg, po pretreated with cocaine for 45 mins by drug-discrimination studies; type: functional
Rattus norvegicus [31] = experiment: Effect on behavioural activity in rat assessed as cocaine-induced lever response at 50 mg/kg, po pretreated with cocaine for 360 mins by drug-discrimination studies; type: functional
Rattus norvegicus [32] = experiment: Effect on behavioural activity in po dosed rat assessed as cocaine-induced lever response pretreated with cocaine by drug-discrimination studies; type: functional
Rattus norvegicus [33] = experiment: Effect on behavioural activity in rat assessed as cocaine-induced lever response at 100 mg/kg, po pretreated with cocaine for 360 mins by drug-discrimination studies; type: functional
Rattus norvegicus [34] = experiment: Effect on behavioural activity in rat assessed as cocaine-induced lever response at 25 mg/kg, po pretreated with cocaine for 180 mins by drug-discrimination studies; type: functional
Rattus norvegicus [35] = experiment: Effect on behavioural activity in rat assessed as cocaine-induced lever response at 2.5 mg/kg, po pretreated with cocaine for 360 mins by drug-discrimination studies; type: functional
Rattus norvegicus [36] = experiment: Effect on behavioural activity in rat assessed as cocaine-induced lever response at 50 mg/kg, ip pretreated with cocaine for 30 mins by drug-discrimination studies; type: functional; conditions: route intraperitoneal
Rattus norvegicus [37] = experiment: Effect on behavioural activity in rat assessed as cocaine-induced lever response at 100 mg/kg, po pretreated with cocaine for 180 mins by drug-discrimination studies; type: functional
Rattus norvegicus [38] = experiment: Effect on behavioural activity in rat assessed as cocaine-induced lever response at 50 mg/kg, po pretreated with cocaine for 45 mins by drug-discrimination studies; type: functional
Rattus norvegicus [39] = experiment: Effect on behavioural activity in rat assessed as cocaine-induced lever response at 25 mg/kg, po pretreated with cocaine for 360 mins by drug-discrimination studies; type: functional
[40] = molecular target: T1, Sodium-dependent serotonin transporter; experiment: biochemical; type: cell-based, HEK293
Rattus norvegicus [41] = experiment: Effect on behavioural activity in rat assessed as cocaine-induced lever response at 2.5 mg/kg, po pretreated with cocaine for 45 mins by drug-discrimination studies; type: functional
Rattus norvegicus [42] = experiment: Effect on behavioural activity in rat assessed as cocaine-induced lever response at 50 mg/kg, po pretreated with cocaine for 180 mins by drug-discrimination studies; type: functional
Rattus norvegicus [43] = experiment: Effect on behavioural activity in rat assessed as cocaine-induced lever response at 10 mg/kg, po pretreated with cocaine for 360 mins by drug-discrimination studies; type: functional
Rattus norvegicus [44] = experiment: Effect on behavioural activity in rat assessed as cocaine-induced lever response at 25 mg/kg, po pretreated with cocaine for 45 mins by drug-discrimination studies; type: functional
Rattus norvegicus [45] = experiment: Effect on behavioural activity in rat assessed as cocaine-induced lever response at 100 mg/kg, ip pretreated with cocaine for 45 mins by drug-discrimination studies; type: functional; conditions: route intraperitoneal
[46] = molecular target: Sodium-dependent dopamine transporter (Homo sapiens, UniProt Q01959); experiment: Displacement of [125I]RTI55 from cloned human DAT expressed in HEK293 cells; type: cell-based
Rattus norvegicus [47] = experiment: Effect on behavioural activity in rat assessed as cocaine-induced lever response at 10 mg/kg, ip pretreated with cocaine for 45 mins by drug-discrimination studies; type: functional; conditions: route intraperitoneal

T1 sequence (P31645 whole entry): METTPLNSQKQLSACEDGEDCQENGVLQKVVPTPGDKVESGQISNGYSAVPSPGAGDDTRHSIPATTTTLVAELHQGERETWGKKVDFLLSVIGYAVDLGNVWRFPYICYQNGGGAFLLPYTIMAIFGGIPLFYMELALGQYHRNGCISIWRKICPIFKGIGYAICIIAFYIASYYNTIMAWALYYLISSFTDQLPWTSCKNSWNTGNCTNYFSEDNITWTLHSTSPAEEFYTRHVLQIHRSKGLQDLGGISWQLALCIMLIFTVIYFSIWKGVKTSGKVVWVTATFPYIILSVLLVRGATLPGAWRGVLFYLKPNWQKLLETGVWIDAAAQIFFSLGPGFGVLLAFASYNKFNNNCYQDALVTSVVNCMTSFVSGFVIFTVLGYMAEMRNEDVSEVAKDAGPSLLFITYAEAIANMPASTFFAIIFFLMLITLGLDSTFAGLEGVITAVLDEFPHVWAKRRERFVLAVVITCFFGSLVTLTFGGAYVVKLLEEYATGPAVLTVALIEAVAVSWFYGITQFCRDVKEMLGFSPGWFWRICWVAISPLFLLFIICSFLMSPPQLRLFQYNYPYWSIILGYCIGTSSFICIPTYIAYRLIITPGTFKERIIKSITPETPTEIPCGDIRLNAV
Chain of Sodium-dependent noradrenaline transporter (P23975 whole entry): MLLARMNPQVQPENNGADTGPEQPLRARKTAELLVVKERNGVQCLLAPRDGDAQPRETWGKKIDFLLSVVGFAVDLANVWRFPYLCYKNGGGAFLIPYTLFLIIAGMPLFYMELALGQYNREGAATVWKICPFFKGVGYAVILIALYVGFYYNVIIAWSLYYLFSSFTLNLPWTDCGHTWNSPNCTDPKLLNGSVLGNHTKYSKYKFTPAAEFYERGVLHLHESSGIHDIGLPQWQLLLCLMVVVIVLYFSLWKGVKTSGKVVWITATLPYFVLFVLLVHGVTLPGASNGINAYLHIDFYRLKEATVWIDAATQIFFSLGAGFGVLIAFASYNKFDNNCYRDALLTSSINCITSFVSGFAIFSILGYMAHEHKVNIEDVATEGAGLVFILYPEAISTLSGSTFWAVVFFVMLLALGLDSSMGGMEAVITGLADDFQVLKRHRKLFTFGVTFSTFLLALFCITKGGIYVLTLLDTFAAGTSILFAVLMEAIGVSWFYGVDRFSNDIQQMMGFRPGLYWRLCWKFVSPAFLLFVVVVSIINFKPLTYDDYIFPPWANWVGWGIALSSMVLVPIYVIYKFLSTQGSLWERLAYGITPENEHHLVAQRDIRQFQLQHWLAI
Chain of Sodium-dependent dopamine transporter (Q01959 whole entry): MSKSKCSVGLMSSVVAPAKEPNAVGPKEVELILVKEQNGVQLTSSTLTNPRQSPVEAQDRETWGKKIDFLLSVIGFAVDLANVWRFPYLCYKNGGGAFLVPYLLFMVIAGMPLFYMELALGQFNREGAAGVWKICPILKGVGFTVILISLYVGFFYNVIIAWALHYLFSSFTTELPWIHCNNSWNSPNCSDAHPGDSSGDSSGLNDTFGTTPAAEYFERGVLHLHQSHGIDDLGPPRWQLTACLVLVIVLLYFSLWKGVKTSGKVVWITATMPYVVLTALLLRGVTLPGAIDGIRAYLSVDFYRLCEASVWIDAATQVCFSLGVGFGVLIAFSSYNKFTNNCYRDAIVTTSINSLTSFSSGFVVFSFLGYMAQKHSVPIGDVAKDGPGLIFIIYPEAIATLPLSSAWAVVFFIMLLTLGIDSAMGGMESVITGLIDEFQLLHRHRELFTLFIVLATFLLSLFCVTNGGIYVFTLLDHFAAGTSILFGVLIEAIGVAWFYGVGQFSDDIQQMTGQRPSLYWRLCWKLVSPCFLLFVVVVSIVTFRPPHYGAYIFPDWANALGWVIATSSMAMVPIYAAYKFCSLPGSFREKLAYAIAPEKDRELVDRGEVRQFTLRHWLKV

With `Cc1cc(C(=O)C(C)NC(C)(C)C)ccc1Br` (stereo not given) the “Time to peak locomotor stimulation” value (Mus musculus [1]) was 50 min, the ED50 (Mus musculus [2]) was 12.6 mg/kg and the Activity (Mus musculus [3]) was 36%. The Activity (Rattus norvegicus [4]) was 16.7%, the Activity (Rattus norvegicus [5]) was 66.9% and the Time (Mus musculus [6]) was 240 min.

For `CC(NC(C)(C)C)C(=O)c1ccc(Br)cc1` (stereo not given), the Activity (Rattus norvegicus [7]) was 1.7%, the “Time to peak locomotor stimulation” value (Mus musculus [1]) was 140 min and the Activity (Rattus norvegicus [8]) was 0.5%. For the same compound, the Ki [9] was > 10 µM, the ED50 (Mus musculus [2]) was 29.5 mg/kg and the Activity (Mus musculus [3]) was 54%. The Activity (Rattus norvegicus [10]) was 20%, the Activity (Rattus norvegicus [11]) was 16.7% and the Time (Mus musculus [6]) was 160 min.

In the case of `CC(NC(C)(C)C)C(=O)c1ccc(Cl)c(Cl)c1` (stereo not given), the “Time to peak locomotor stimulation” value (Mus musculus [1]) is reported as 270 min, the Activity (Rattus norvegicus [12]) is reported as 22.4% and the ED50 (Mus musculus [2]) is reported as 26.9 mg/kg. The Activity (Mus musculus [3]) was 61%, the IC50 [13] was > 10 µM and the Time (Mus musculus [6]) was 140 min. The Activity (Rattus norvegicus [14]) was 16.7%.

`CC(NC(C)(C)C)C(=O)c1cc(F)cc(F)c1` (stereo not given) showed an Activity (Rattus norvegicus [15]) of 84%, an Activity (Rattus norvegicus [16]) of 0% and an Activity (Rattus norvegicus [17]) of 18%. For the same compound, the Activity (Rattus norvegicus [18]) was 20%, the Activity (Rattus norvegicus [19]) was 0% and the “Time to peak locomotor stimulation” value (Mus musculus [1]) was 0 min. The Activity (Rattus norvegicus [20]) was 16.7%, the Activity (Rattus norvegicus [21]) was 0% and the Activity (Rattus norvegicus [22]) was 33%. The Ki [9] was > 10 µM, the Activity (Rattus norvegicus [23]) was 7% and the ED50 (Mus musculus [2]) was 35 mg/kg. It also gave an ED50 (Rattus norvegicus [24]) of 7.8 mg/kg, an Activity (Rattus norvegicus [25]) of 25% and an Activity (Mus musculus [3]) of 84%. It also gave an Activity (Rattus norvegicus [26]) of 0%, an Activity (Rattus norvegicus [27]) of 58% and an Activity (Rattus norvegicus [28]) of 31%. It also gave an Activity (Rattus norvegicus [29]) of 0%, an Activity (Rattus norvegicus [30]) of 0% and an Activity (Rattus norvegicus [31]) of 0%. The ED50 (Rattus norvegicus [32]) was 41.5 mg/kg, the Activity (Rattus norvegicus [33]) was 0% and the Activity (Rattus norvegicus [34]) was 0%. For the same compound, the Activity (Rattus norvegicus [35]) was 0%, the Activity (Rattus norvegicus [36]) was 83.3% and the Activity (Rattus norvegicus [37]) was 17%. For the same compound, the Activity (Rattus norvegicus [38]) was 67%, the Activity (Rattus norvegicus [39]) was 7% and the Ki [40] was > 10 µM. For the same compound, the Activity (Rattus norvegicus [41]) was 0%, the Activity (Rattus norvegicus [42]) was 20% and the Activity (Rattus norvegicus [43]) was 3%. It also gave a Time (Mus musculus [6]) of 280 min and an Activity (Rattus norvegicus [44]) of 4%.

With `CC(NC(C)(C)C)C(=O)c1ccc(F)c(F)c1` (stereo not given) the “Time to peak locomotor stimulation” value (Mus musculus [1]) was 10 min, the Ki [9] was > 10 µM and the Activity (Rattus norvegicus [45]) was 63.9%. For the same compound, the Activity (Mus musculus [3]) was 58%, the Ki [46] was > 10 µM and the Activity (Rattus norvegicus [47]) was 1.7%. For the same compound, the Ki [40] was > 10 µM and the Time (Mus musculus [6]) was 60 min.
